The values below come from publication PMC12592400, “A unique inhibitor conformation selectively targets the DNA polymerase PolC of Gram-positive priority pathogens” (Nature Communications, 2025).

The test system of assay [1] is Staphylococcus aureus NRS384 (MRSA; methicillin-resistant). As to the kind of experiment: Broth microdilution MIC. Format: cell-based. The note with it: read-out: Measured MIC. How it is done:
(§1) Minimal inhibitory concentrations (MICs) were determined by WuXi Apptec, on behalf of Acurx Pharmaceuticals, Inc., for the Gram-positive pathogens: Enterococcus faecium ATCC 700221 (VRE; vancomycin-resistant), Enterococcus faecalis ATCC 29212, Staphylococcus aureus NRS384 (MRSA; methicillin-resistant), Staphylococcus aureus ATCC 29213 (MSSA; methicillin-sensitive), and Streptococcus pneumoniae ATCC 49619 (PRSP; penicillin-resistant). As a control, Gram-negative Escherichia coli ATCC 25922 was included. All strains were obtained from ATCC with the exception of Staphylococcus aureus NRS384, which was obtained from NARSA (Network on Antimicrobial Resistance in Staphylococcus aureus, now part of BEI resources). Bacteria were cultured according to the manuals provided by the suppliers and stored in 25% glycerol (final concentration) at –80 °C.
(§2) Bacterial strains were streaked out onto MHA plates (Mueller-Hinton II Agar; BD-211438) and incubated at 37 °C for 20 h except for S. pneumoniae and Enterococci, which were streaked on blood agar (Huankai-24070). S. pneumoniae was incubated in 5% CO2. Single colonies were suspended in 5 mL sterile saline, the turbidity was adjusted to 0.20 (Siemens MicroScan turbidity metre; equal to ~1.0 × 10^8 colony forming units (CFU)/mL) and then diluted 200x in MHIIB (Mueller-Hinton II […] (BD-211438)) medium. The MHIIB media was supplemented with 5% Lysed Horse Blood (Shanghai YuanMu Biological Technology Co. Ltd. YM-U161) for S. pneumoniae.
(§3) ACX compounds were dissolved in pure DMSO (Sigma 276855) to a concentration of 20 mg/mL. From this, twofold serial dilutions (from […]) in DMSO were transferred to a 96-well source-plate (Axygen-wipp02280) with pure DMSO as a control. 2 µL from the source plate was then transferred into 96-well culture plates (Costar 3788) and inoculated with 198 µL of the bacterial suspension so that each well contained ~5.0 × 10^5 CFU/mL bacteria, 1% DMSO and serially diluted compounds at 0 µg/mL and 0.0625-64 µg/mL in 100 µl medium. For NRS384, which was tested in a separate experiment, 99 µL of bacterial suspension was added to 1 µL of compound. The plates were incubated in ambient atmosphere at 37 °C for 20 h.

The test system of assay [2] is Streptococcus pneumoniae ATCC 49619 (PRSP; penicillin-resistant). As to the kind of experiment: Broth microdilution MIC. Format: cell-based. The note with it: read-out: Measured MIC. The procedure:
as §1, §2, §3

In assay [3] the test system is Enterococcus faecium ATCC 700221 (VRE; vancomycin-resistant). As to the kind of experiment: Broth microdilution MIC. Particulars: for MIC: Enterococcus faecium, read-out: Measured MIC; for Measured MIC: Table 2, polC WT, strain ATCC 700221. Format: cell-based. How it is done: as §1, §2, §3
(Dilution methods test growth across graded concentrations, often in twofold steps.)

The test system of assay [4] is Escherichia coli ATCC 25922. As to the kind of experiment: Broth microdilution MIC. Format: cell-based. How it is done: as §1, §2, §3
For assay [5], the system named is Enterococcus faecalis ATCC 29212. As to the kind of experiment: Broth microdilution MIC. Format: cell-based. How it is done: as §1, §2, §3
For assay [6], the system named is Staphylococcus aureus ATCC 29213 (MSSA; methicillin-sensitive). As to the kind of experiment: Broth microdilution MIC. The note with it: read-out: Measured MIC. Format: cell-based. How it is done: as §1, §2, §3
Assay [7] has as its system E. faecium strains with polC mutations (A1281T, F1276I, F1276L, F1276S). As to the kind of experiment: Cross-resistance MIC of reduced susceptible E. faecium strains. Format: cell-based, Enterococcus faecium. Particulars: for raise of MIC by A1281T: E. faecium polC A1281T versus WT (Table 2); for MIC: Enterococcus faecium. The procedure: Strains with reduced susceptibility to ACX compounds were generated by WuXi Apptec on behalf of Acurx Pharmaceuticals, Inc., using E. faecium ATCC 700221 as parental strain.
Agar MICs for the wild-type strain were determined on Blood agar (Huankai). Compounds and linezolid were dissolved in 100% DMSO and vancomycin in ultrapure water. Strains were inoculated onto agar plates, incubated at 37 °C for 20-24 h after which colonies were suspended in sterile 0.9% saline at different bacterial concentrations. 5 μL of bacterial suspensions was individually spotted on agar plates supplemented with compounds at different concentrations, resulting in final concentrations of 10^–1, 10^–2, 10^–3, 10^–4, 10^–5, 10^–6, and 10^–7 per spot. After incubation for 20-24 h, bacterial growth was assessed by visual inspection.
For frequency of resistance (FOR) studies, colonies from the agar plate were suspended into sterile 0.9% saline to get 10^8-10^9 CFU bacterial cells per mL. […] The suspensions were also serially diluted with 0.9% saline and spotted onto agar to determine the actual inoculum. All agar plates were incubated at 37 °C for 48 h. FOR was defined as colony number on each compound-containing plate per CFU number of actual inoculum. Resistant colonies were subcultured on the corresponding compound plates to confirm that colonies were resistant and stable.
Confirmed resistant colonies were used for cross-resistance studies, as described above.
Paired-end short read sequencing data from selected mutants (generated by BGISEQ) as well as the corresponding wild-type parental strain was analysed against the reference genomes for E. faecium strain ATCC 700221 (https://genomes.atcc.org/genomes/f9d13a716ccb4f78) using Geneious R10.2.6 (Biomatters Ltd). Variants were called using the Find Variants/SNPs function with a minimum coverage of 10 and a minimum frequency of 0.8. […] This identified the following mutations in the polC gene: D1103Y in strain Efa4; F1276L in strains Efa030, Efa038, and Efa039; F1276I in strains Efa1 and Efa037; F1276S in strain Efa3; A1281T in strains Efa036, Efa040 and Efa041. Strains Efa036, Efa039, and Efa040 each had only one polymorphism identified.

The mark [8] stands for this setting: S. aureus MRSA NRS 384, Table 1, independent experiment.
Setting [9] is: S. pneumoniae PRSP ATCC 49619, Table 1, single replicate.
Setting [10] is: E. faecium VRE ATCC 700221, Table 1, single replicate.
The mark [11] stands for this setting: ATCC25922, E. coli ATCC 25922, Table 1, single replicate, read-out: Measured MIC.
Where [12] appears, read: ATCC29212, E. faecalis ATCC 29212, Table 1, single replicate, read-out: Measured MIC.
Setting [13] is: S. aureus ATCC 29213, Table 1, single replicate.
[14] abbreviates: read-out: Measured MIC, polC A1281T, strain Efa036, selected on 2 mg/L ACX-641.
The mark [15] stands for this setting: read-out: Measured MIC, polC A1281T, strain Efa040, selected on 4 mg/L ACX-671.
The mark [16] stands for this setting: read-out: Measured MIC, polC F1276I, strain Efa037, selected on 4 mg/L ACX-641.
The mark [17] stands for this setting: read-out: Measured MIC, polC F1276L, strain Efa030, selected on 16 mg/L ACX-728.
[18] abbreviates: read-out: Measured MIC, polC F1276S, strain Efa3, selected on 16 mg/L ACX-728.

Converted amounts (≈) assume the structure as drawn. Like-named read-outs stand apart in the source and are kept apart here.

As for `O=c1[nH]c(NCc2ccc(Cl)c(Cl)c2)nc2ncn(CCN3CCOCC3)c12` [IBZ, N^2-(3,4-dichlorobenzyl)-7-(2-[1-morpholinyl]ethyl)guanine], the MIC was 8 µg/mL (≈ 18.9 µM) in assay [1] (setting [8]); 2 µg/mL (≈ 4.72 µM) in assay [2] (setting [9]); 2 µg/mL (≈ 4.72 µM) in assay [3] (setting [10]); greater than 64 µg/mL in assay [4] (setting [11]); 8 µg/mL (≈ 18.9 µM) in assay [5] (setting [12]); 8 µg/mL (≈ 18.9 µM) in assay [6] (setting [13]). Besides, the MIC was 16 µg/mL in assay [7] (setting [14]); 8 µg/mL in assay [7] (setting [15]); greater than 64 µg/mL in assay [7] (setting [16]); greater than 64 µg/mL in assay [7] (setting [17]); 16 µg/mL in assay [7] (setting [18]). In assay [3], the “Measured MIC” value was 2 µg/mL. In assay [7], the “raise of MIC by A1281T” value is “up to eightfold”.

As for `CC(=O)NC[C@H]1CN(c2ccc(N3CCOCC3)c(F)c2)C(=O)O1` [LZD, linezolid], the MIC was 2 µg/mL (≈ 5.93 µM) in assay [1]; 1 µg/mL (≈ 2.96 µM) in assay [2]; 4 µg/mL (≈ 11.9 µM) in assay [3]; greater than 64 µg/mL in assay [4] (ATCC25922, read-out: Measured MIC); 2 µg/mL (≈ 5.93 µM) in assay [5] (ATCC29212, read-out: Measured MIC); 4 µg/mL (≈ 11.9 µM) in assay [6]. Further, the MIC in assay [7] (setting [14]), in assay [7] (setting [15]), in assay [7] (setting [16]), in assay [7] (setting [17]) and in assay [7] (setting [18]) was 4 µg/mL each time. Besides, the “Measured MIC” value in assay [3] worked out at 4 µg/mL.

In the case of `O=c1[nH]c(NCc2ccc3c(c2)OC(F)(F)O3)nc2c(F)nn(CCO)c12` [ACX-801, 5-(((2,2-difluorobenzo[d][1,3]dioxol-5-yl)methyl)amino)-3-fluoro-1-(2-hydroxyethyl)-1,6-dihydro-7H-pyrazolo[4,3-d]pyrimidin-7-one], the MIC is 2 µg/mL (≈ 5.22 µM) in assay [1] (setting [8]); 4 µg/mL (≈ 10.4 µM) in assay [2] (setting [9]); 1 µg/mL (≈ 2.61 µM) in assay [3] (setting [10]); greater than 64 µg/mL in assay [4] (setting [11]); 2 µg/mL (≈ 5.22 µM) in assay [5] (setting [12]); 2 µg/mL (≈ 5.22 µM) in assay [6] (setting [13]). Further, the MIC is 16 µg/mL in assay [7] (setting [14]); 32 µg/mL in assay [7] (setting [15]); greater than 64 µg/mL in assay [7] (setting [16]); 64 µg/mL in assay [7] (setting [17]); 32 µg/mL in assay [7] (setting [18]). Further, the “Measured MIC” value in assay [3] is 1 µg/mL. The “increased potency compared to IBZ” value in assay [3] (against Gram-positive bacteria, including MRSA and VRE (Table 1)) is on record as 2- to 4 fold. The “raise of MIC by A1281T” value in assay [7] was “up to 32 fold”.
